Key:
A549 cells [1] = test: TGF-β1-induced EMT protein expression, western blot; format: cell-based, human; details: test compounds 2 μM, senexin A 5 μM, pirfenidone 1 mM; TGF-β1 10 ng/mL
Experimental: FIGS. 4A-4B show the inhibition of epithelial-to-mesenchymal transition protein expressions by CDK8 inhibitors in human alveolar epithelial cells. […] Cell lysates were subjected to a Western blot analysis using the indicated antibodies. Results are shown as the mean t SEM from three independent experiments. *p<0.05, and ***p<0.001 compared to the control group; #p<0.05, ##p<0.01, and ###p<0.001 compared to the TGF-β1-treated group. […] Cell viabilities were determined by an MTT assay. Results are shown as the mean t SEM of three independent experiments.
(§1) Cells (106) were incubated for 10 min at 4° C. in lysis buffer (20 mM HEPES at pH 7.4, 2 mM EGTA, 50 mM β-glycerophosphate, 0.1% Triton X-100, 10% glycerol, 1 mM DTT, 1 μg/mL of leupeptin, 5 μg/mL of aprotinin, 1 mM phenylmethylsulfonyl fluoride, and 1 mM sodium orthovanadate), scraped off, incubated on ice for an additional 10 min, and centrifuged at 17,000 g for 30 min at 4° C. Protein samples (20 μg) were then electrophoresed on SDS-polyacrylamide gel electrophoresis (PAGE) gels and transferred to a nitrocellulose membrane, which was then blocked by incubation for 30 min at room temperature with 5% bovine serum albumin (BSA) in Tris-buffered saline with 0.1% Tween-20 (TBST). Immunoblotting was performed by overnight incubation at 4° C. with primary antibodies in TBST, followed by incubation for 1 h at room temperature with horseradish peroxidase (HRP)-conjugated secondary antibodies. Bound antibodies were measured using enhanced chemiluminescence (ECL) reagent (GE Healthcare, UK) and exposed to photographic film.

A549 cells [2] = test: Nuclear p-Smad3 T179 and RNA polymerase II pS2/S5 after TGF-β1, fractionation and western blot; format: cell-based, human; details: compound k 5 μM, senexin A 5 μM, pirfenidone 1 mM; TGF-β1 10 ng/ml 3 h
Experimental: FIGS. 8A-8B show the inhibitory effects of cellular distributions of TGF-β1-induced p-Smad3 T179, RNA polymerase II pS2/S5, and Smad3 after treatment with compound k. Human alveolar epithelial A549 cells were incubated with compound k (5 μM), senexin A (5 μM), or pirfenidone (1 mM) for 1 h, followed by stimulation with TGF-β1 (10 ng/ml) for 3 h. Protein expressions in the cytoplasmic and nuclear fractions were subjected to a Western blot analysis using the indicated antibodies. α-Tubulin and histone H3 served as loading controls for the cytoplasmic and nuclear fractions, respectively. Results are shown as the mean±SEM of three independent experiments. **p<0.01 and ***p<0.001 compared to the control group; #p<0.05 and ##p<0.01 compared to the TGF-β1-treated group.
as §1
A Nuclear/Cytosol Fractionation Kit (Biovision, USA) was used to separate the cytosolic and nuclear fractions. […]

DU145 cells = test: LiCl-induced β-catenin signaling, western blot; format: cell-based, human; details: LiCl 20 mM; senexin A 10 μM
Experimental: Inhibitory phosphorylation of GSK3β was evaluated through western blotting. […] Whole-cell lysates were subjected to western blotting with the indicated antibodies. FIGS. 11J-11K show the comparison of basal activities of the Akt/GSK3β axis between PC-3 and DU145 cells. […] The results are shown as the mean±SEM from at least three independent experiments (*p<0.05, **p<0.01, ***p<0.001 vs. control group; #p<0.05, ##p<0.01, and ###p<0.001 vs. relevant control).
The cells were incubated in lysis buffer for 10 min at 4° C., scraped off, incubated on ice for an additional 10 min and then centrifuged at 17,000 g for 30 min at 4° C. Protein samples were electrophoresed on SDS-PAGE gels, transferred to PVDF membranes and blocked with 5% fat-free milk in PBS for 30 min at room temperature. Immunoblotting was performed overnight with primary antibodies in PBS at 4° C., followed by incubation with HRP-conjugated secondary antibodies for 1 h at room temperature. Bound antibodies will be measured using an ECL reagent and exposed to a photographic film. In the immunoprecipitation assay, cell lysates were immunoprecipitated with 1 μg of antibody and A/G agarose beads overnight at 4° C. After washing the precipitated beads three times with 1 mL ice-cold cell lysis buffer, bound immune complexes were separated by 10% SDS-PAGE and analyzed with immunoblotting.

CDK8 = CDK8 (Homo sapiens (Human), UniProt P49336); details: commercial CDK8 inhibitor; cited from earlier work
Sequence of CDK8 (P49336 whole entry, looked up, species assumed): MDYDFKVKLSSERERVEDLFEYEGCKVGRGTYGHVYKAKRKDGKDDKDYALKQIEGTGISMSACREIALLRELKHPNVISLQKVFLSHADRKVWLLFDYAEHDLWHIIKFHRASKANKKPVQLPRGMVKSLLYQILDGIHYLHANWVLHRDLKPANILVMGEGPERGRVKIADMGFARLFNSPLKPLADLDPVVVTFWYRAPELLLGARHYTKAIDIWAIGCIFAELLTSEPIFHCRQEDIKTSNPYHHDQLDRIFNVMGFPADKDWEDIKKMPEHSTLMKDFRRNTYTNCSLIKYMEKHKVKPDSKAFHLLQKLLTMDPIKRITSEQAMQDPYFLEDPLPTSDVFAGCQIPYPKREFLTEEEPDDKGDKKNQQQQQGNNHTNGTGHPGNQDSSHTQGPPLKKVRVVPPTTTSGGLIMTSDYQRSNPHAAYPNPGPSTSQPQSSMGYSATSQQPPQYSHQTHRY
Sequence of CDK8 (P24863 whole entry partner, looked up, species assumed): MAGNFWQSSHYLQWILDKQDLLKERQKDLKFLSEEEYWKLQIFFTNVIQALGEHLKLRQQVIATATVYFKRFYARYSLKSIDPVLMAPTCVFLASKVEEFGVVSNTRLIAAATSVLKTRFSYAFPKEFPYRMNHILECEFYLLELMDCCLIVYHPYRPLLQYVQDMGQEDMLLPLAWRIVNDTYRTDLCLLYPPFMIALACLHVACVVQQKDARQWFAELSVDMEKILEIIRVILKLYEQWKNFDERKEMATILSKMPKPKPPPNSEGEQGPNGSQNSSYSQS

N#Cc1ccc2ncnc(NCCc3ccccc3)c2c1 [Senexin A, reference compound]
TGF-β1-triggered EMT protein expressions (A549 cells [1]): slight inhibition
phosphorylation of p-Smad3 T179 and RNA Pol II pSer2/5 (A549 cells [2]): less-potent inhibition
levels of active form of β-catenin and Snail (DU145 cells): reduced the levels
IC50 (CDK8): 280 nM

From patent US20250109120A1, “INDOLINE DERIVATIVES FOR TREATMENT AND/OR PREVENTION OF TUMOR OR CELL PROLIFERATIVE AND FIBROSIS DISEASES” (NATIONAL TAIWAN UNIVERSITY, priority 2023, published 2025)
